Measurements: patent US20200061092A1, “METHODS AND COMPOSITIONS FOR TREATING DISORDERS ASSOCIATED WITH MUSCLE WEAKNESS” (priority 2018, published 2020)

Assays:
[1] = system: muscular dystrophy caused by FKRP mutations; assay: Ribitol/ribose supplementation in animal model of FKRP mutation muscular dystrophy; assay type: in vivo; conditions: supplement via drinking water
C2C12 myotubes = assay: LC/MS-MS of isotopically labeled metabolites in differentiated C2C12 myotubes; assay type: cell-based, mouse; conditions: 5 mM, 5 days

Row | Molecule | Disease pathology of muscular dystrophy caused by FKRP mutations [1] | Levels of 13C-ribitol-5P and CDP-13C-ribitol in cells (C2C12 myotubes)
1 | O=C[C@H](O)[C@H](O)[C@H](O)CO [ribose] | diminish disease pathology | 
2 | ^13C5-ribitol [^13C-ribitol] |  | clearly elevated levels
